Some results are limits rather than exact numbers.

The target in the experiment is T1, BRD4(BD1) (Homo sapiens, UniProt O60885).
T1 construct: a BRD4(BD1) synthetic gene that includes a TEV cleavage site was purchased from LifeTechnology; made in house
Briefly: HTRF assay, disruption of bromodomain/histone peptide interaction. Type of experiment: binding. Conditions: HTRF; mean ± SD of three experiments; Table 2; read-out: IC50 μM, effect on BRD4(BD1) activity. On the procedure:
HTRF assays were performed in white 384 Well Small Volume™ HiBase Polystyrene Microplates (Greiner) with a total working volume of 20 μL. Compounds were dispensed, with 200 nL per well (1% final DMSO), from a concentration stock of 1 mM in 100% DMSO and with serial DMSO dilutions, using a Mosquito Crystal pipetting robot platform (TTP labtech). The IC50 measurements were performed in triplicates (Table 2 and 3). All HTRF reagents were purchased from CisBio Bioassays and reconstituted according to the supplier protocols. For each assay 14.7 μL of mix 1 (protein+peptide) is added in the assay wells, containing previously dispensed inhibitors, according to the final concentration and buffer described in Table 4, using a Biomek NX MC pipetting robot (Beckman). Then, 5.1 μL of mix 2 (donnor+acceptor) is added. HTRF signals were measured, after a final incubation (overnight at room temperature), using a PHERAstar FS (BMG Labtech) with an excitation filter at 337 nm and fluorescence wavelength measurement at 620 and 665 nm, an integration delay of 60 μs and an integration time of 500 μs. Results were analyzed with a two-wavelengths signal ratio: [intensity (665 nm)/intensity (620 nm)]*10^4. Percentage of inhibition was calculated using the following equation: % inhibition=[(compound signal)−(min signal)]/[(max signal)−(min signal)]*100, where ‘max signal’ is the signal ratio with the compound vehicle alone (DMSO) and ‘min signal’ the signal ratio without peptide.
For Isothermal Titration Calorimetry (ITC) and crystallogenesis, BRD4(BD1) was produced and purified using a histidine tag affinity chromatography as described by Filipakopoulos et al.9 For these experiments, a pNIC28-BSA4 expression vector containing BRD4(BD1) and a Tobacco Etch Virus (TEV) protease cleavage site have kindly been provided by Stefan Knapp laboratory from the SGC at the University of Oxford. After size exclusion chromatography, the fractions presenting pure BRD4(BD1) after TEV cleavage of the histidine tag were pooled and concentrated to 25 mg/mL for crystallogenesis. For ITC assays, the protein was concentrated up to at 6 mg/mL and the DTT was removed using a buffer exchange column (PD10 from GE healthcare) equilibrated with 10 mM HEPES pH=7.5, 150 mM NaCl. For Homogeneous Time Resolved Fluorimetry (HTRF) experiments, a BRD4(BD1) synthetic gene that includes a TEV cleavage site was purchased from LifeTechnology in a pDONR transport vector before cloning into a pDESTTM15 expression vector for GST affinity purification. Protein production and purification was carried out using similar protocols and buffers as used for the His-BRD4(BD1) system. Purification was carried on GST affinity resin (Thermo Scientific) and reduced glutathione was used for protein release. GST-BRD4(BD1) was further purified by size exclusion chromatography on a Superdex 16/60 Hiload column (GE Healthcare) using 20 mM TRIS pH=8.0, 150 mM NaCl Buffer.
(In general: Time-resolved FRET reads energy transfer from a long-lived donor to a nearby acceptor.)
Regarding `CCCCc1c(C)nc2nc(SCc3nc4c(c(=O)[nH]c(=O)n4Cc4ccc(Cl)cc4)n3CC(C)C)nn2c1C` [Compound 28a], the IC50 was more than 100 µM.

For `O=c1[nH]c(=O)n(Cc2ccc(Cl)cc2)c2nc(CO)[nH]c12` [Compound 17b], the IC50 is more than 100 µM.

As for `CCCCn1c(=O)[nH]c(=O)c2c1nc(CO)n2CCC` [Compound 18b], the IC50 is more than 100 µM.

Turning to `CCn1c(Br)nc2[nH]c(=O)[nH]c(=O)c21` [Compound 12a], the IC50 was more than 100 µM.

Consider `CCn1cnc2c1c(=O)[nH]c(=O)n2Cc1ccc(C(C)(C)C)cc1` [Compound 7b], for which the IC50 was found to be 2.6 µM.

In the case of `CCn1cnc2c1c(=O)nc(NC(=O)OC(C)(C)C)n2Cc1ccc(Cl)cc1` [Compound 8a], the IC50 was more than 100 µM.

For the compound `CCn1c(Sc2nc3nc(C)cc(C)n3n2)nc2c1c(=O)[nH]c(=O)n2Cc1ccc(Cl)cc1` [Compound 29a], the IC50 was more than 100 µM.

As for `CCCCn1c(=O)[nH]c(=O)c2c1nc(CSc1cc3ccccc3[nH]1)n2CC` [Compound 23b], the half-maximal inhibitory concentration (IC50) was more than 100 µM.

Consider `CCCCn1c(=O)[nH]c(=O)c2c1nc(Sc1nc3nc(C)cc(C)n3n1)n2CC` [Compound 28b, 3-Butyl-8-(5,7-dimethyl-[1,2,4]triazolo[1,5-a]pyrimidin-2-ylsulfanyl)-7-ethyl-3,7-dihydro-purine-2,6-dione], for which the concentration for half-maximal inhibition (IC50) is more than 100 µM.

With `CCn1c(CSc2nc3ccccc3[nH]2)nc2c1c(=O)[nH]c(=O)n2Cc1ccc(Cl)cc1` [Compound 23a], the IC50 is more than 100 µM.

Consider `CCn1cnc2c1c(=O)[nH]c(=O)n2C` [Compound 4c], for which the IC50 is more than 100 µM.

For `CCCCn1c(=O)[nH]c(=O)c2c1nc(CSc1nc3nc(CC)cc(CC)n3n1)n2CC` [Compound 25b], the IC50 was 46.6 µM.

Turning to `CCCCn1c(=O)[nH]c(=O)c2c1nc(CSc1n[nH]c(N)n1)n2CC` [Compound 21b, 8-(5-Amino-1H-[1,2,4]triazol-3-ylsulfanylmethyl)-3-butyl-7-ethyl-3,7-dihydro-purine-2,6-dione], the half-maximal inhibitory concentration (IC50) was determined as 89.1 µM.

Take `CCCCc1c(C)nc2nc(CSc3nc4c(c(=O)[nH]c(=O)n4Cc4ccc(Cl)cc4)n3CC)nn2c1C` [Compound 31b]: the IC50 was 59.6 µM.

Take `CCn1c(Br)nc2c1c(=O)[nH]c(=O)n2Cc1ccc(Cl)cc1` [Compound 12b]: the IC50 was less than 100 µM.

With `CCn1cnc2[nH]c(=O)[nH]c(=O)c21` [Compound 3a, 7-Ethylxanthine], the 50% inhibitory concentration (IC50) was more than 100 µM.

Take `CCCCn1c(N)nc(=O)c2c1ncn2CC` [Compound 8c]: the IC50 came out at 10.7 µM.

As to `CCCCn1c(=O)[nH]c(=O)c2c1nc(Cl)n2CC` [Compound 12c, 3-Butyl-8-chloro-7-ethylxanthine], the IC50 was more than 100 µM.

Take `Nc1nc2nc[nH]c2c(=O)[nH]1` [Compound 1a]: the 50% inhibitory concentration (IC50) was more than 100 µM.

Turning to `O=c1[nH]c(=O)c2[nH]cnc2[nH]1` [Compound 2b, xanthine], the half-inhibitory concentration (IC50) was more than 100 µM.

As to `CC(C)Cn1cnc2[nH]c(=O)[nH]c(=O)c21` [Compound 3b], the IC50 is more than 100 µM.

As for `CCn1cnc2c1c(=O)[nH]c(=O)n2Cc1ccc(Br)cc1` [Compound 6c], the IC50 amounted to 2.6 µM.

As for `CCCCn1c(=O)[nH]c(=O)c2[nH]c(CO)nc21` [Compound 17a, 3-Butyl-8-hydroxymethylxanthine], the IC50 is more than 100 µM.

Consider `CCn1c(SC)nc2c1c(=O)[nH]c(=O)n2C` [Compound 15c], for which the 50% inhibitory concentration (IC50) was determined as 100 µM.

Turning to `Cn1c(-c2ccc(Cl)cc2)nc2c1c(=O)[nH]c(=O)n2Cc1ccccc1` [Compound 10c], the IC50 was more than 100 µM.

For `CCCCn1c(=O)[nH]c(=O)c2c1nc(CSc1nc3ccccc3[nH]1)n2CC` [Compound 22b], the half-maximal inhibitory concentration (IC50) was more than 100 µM.

For `CCCCn1c(=O)[nH]c(=O)c2c1nc(CSc1nc3nc(C)cc(C)n3n1)n2CC` [Compound 24b], the half-maximal inhibitory concentration (IC50) stood at 69.6 µM.

With `CCc1cc(CC)n2nc(Sc3nc4c(c(=O)[nH]c(=O)n4Cc4ccc(Cl)cc4)n3CC)nc2n1` [Compound 30a], the IC50 turned out to be 18.3 µM.

Turning to `CCCCn1c(=O)[nH]c(=O)c2c1nc(CO)n2C` [Compound 17c], the IC50 is more than 100 µM.

As to `O=c1[nH]c(=O)c2[nH]c(Br)nc2[nH]1` [Compound 11b], the IC50 was more than 100 µM.

For `CCn1cnc2[nH]c(NC(=O)OC(C)(C)C)nc(=O)c21` [Compound 3c], the half-inhibitory concentration (IC50) is more than 100 µM.

Consider `CCCCn1c(=O)[nH]c(=O)c2c1nc(CCl)n2CC` [Compound 19c, 3-butyl-8-chloromethyl-7-ethylxanthine], for which the IC50 was more than 100 µM.

In the case of `CCCCc1c(C)nc2nc(CSc3nc4c(c(=O)[nH]c(=O)n4CCCC)n3CC)nn2c1C` [Compound 32a, 3-Butyl-8-(6-butyl-5,7-dimethyl-[1,2,4]triazolo[1,5-a]pyrimidin-2-ylmethylsulfanyl)-7-ethyl-3,7-dihydro-purine-2,6-dione], the 50% inhibitory concentration (IC50) is 54 µM.

`O=c1[nH]c(=O)n(Cc2ccc(Cl)cc2)c2nc[nH]c12` [Compound 4a]: the 50% inhibitory concentration (IC50) is more than 100 µM.

As for `CCn1cnc2c1c(=O)[nH]c(=O)n2CC(C)C` [Compound 5c], the IC50 was more than 100 µM.

On to `CCCCn1c(=O)[nH]c(=O)c2c1nc(S)n2CC` [Compound 15a, 3-butyl-7-ethyl-8-mercaptoxanthine], for which the concentration for half-maximal inhibition (IC50) is 35.1 µM.

Take `CCCCn1c(NC(=O)OC(C)(C)C)nc(=O)c2c1ncn2CC` [Compound 7c]: the 50% inhibitory concentration (IC50) stood at 17.9 µM.

Turning to `CCn1cnc2c1c(=O)nc(NC(=O)OC(C)(C)C)n2C(=O)OC(C)(C)C` [Compound 8b], the IC50 is more than 100 µM.

As for `CCn1cnc2c1c(=O)[nH]c(=O)n2C(C)C` [Compound 5b], the half-inhibitory concentration (IC50) was 52.5 µM.

For the compound `Nc1nc2nc[nH]c2c(=S)[nH]1` [Compound 2a], the half-maximal inhibitory concentration (IC50) is more than 100 µM.

For `CCn1c(S)nc2c1c(=O)[nH]c(=O)n2C` [Compound 14c], the IC50 is less than 100 µM.

With `CCCCc1c(C)nc2nc(SCc3nc4c(c(=O)[nH]c(=O)n4Cc4ccc(Cl)cc4)n3C)nn2c1C` [Compound 27a], the IC50 is 100 µM.

Turning to `CCn1c(CSc2nc[nH]n2)nc2c1c(=O)[nH]c(=O)n2Cc1ccc(Cl)cc1` [Compound 21a], the 50% inhibitory concentration (IC50) is 45.6 µM.

Turning to `CCCCc1c(C)nc2nc(Sc3nc4c(c(=O)[nH]c(=O)n4Cc4ccc(Cl)cc4)n3CC)nn2c1C` [Compound 31a], the 50% inhibitory concentration (IC50) is 46.8 µM.

Turning to `CCn1cnc2[nH]c(N)nc(=O)c21` [Compound 1c, 7-ethylguanine], the IC50 was more than 100 µM.

Turning to `O=C(O)CCSc1nc2c([nH]1)c(=O)[nH]c(=O)n2Cc1ccc(F)cc1` [Compound 16a], the IC50 was more than 100 µM.

Regarding `CCCCn1c(=O)[nH]c(=O)c2c1nc(CO)n2CC` [Compound 18a, 3-Butyl-7-ethyl-8-hydroxymethylxanthine], the IC50 is more than 100 µM.

With `CCn1c(CSc2cc3ccccc3[nH]2)nc2c1c(=O)[nH]c(=O)n2Cc1ccc(Cl)cc1` [Compound 24a], the IC50 was more than 100 µM.

With `CCn1cnc2c1c(=O)nc(N)n2Cc1ccc(Cl)cc1` [Compound 9a], the IC50 is more than 100 µM.

As to `CCn1c(CO)nc2c1c(=O)[nH]c(=O)n2Cc1ccc(Cl)cc1` [Compound 19a], the IC50 worked out at 93.3 µM.

On to `O=c1[nH]c(=O)n(Cc2ccc(Cl)cc2)c2nc(Br)[nH]c12` [Compound 11c], for which the 50% inhibitory concentration (IC50) is more than 100 µM.

For `Cn1cnc2[nH]c(=O)[nH]c(=O)c21` [Compound 2c], the IC50 was more than 100 µM.

In the case of `CCn1cnc2c1c(=O)[nH]c(=O)n2CC` [Compound 5a], the concentration for half-maximal inhibition (IC50) came out at 70.3 µM.

One may read the IC50 as the point on the concentration scale where inhibition reaches its midpoint.

For the origin of these results see patent publication US11225481B2 (Centre national de la recherche scientifique, priority 2015, dated 2022).
